# Test results taken from PubChem BioAssay (NCI).
#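 The compound was tested at five concentrations on cells cultured in 96-well plates, with a 48-hour exposure period. GI50 is the concentration that inhibits growth by half. At the TGI there is no net growth.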
# What was measured:
# Assay in all cases: DTP human tumour cell line panel, 48 h
# ACHN renal = test system: ACHN renal
# EKVX NSCLC = test system: EKVX NSCLC
# HCT-15 colon = test system: HCT-15 colon
# LOX IMVI melanoma = test system: LOX IMVI melanoma
# OVCAR-5 ovarian = test system: OVCAR-5 ovarian
# RPMI-8226 leukemia = test system: RPMI-8226 leukemia
# SK-MEL-5 melanoma = test system: SK-MEL-5 melanoma
# U251 CNS = test system: U251 CNS
# UACC-257 melanoma = test system: UACC-257 melanoma
# UACC-62 melanoma = test system: UACC-62 melanoma
Structure (SMILES),GI50 (ACHN renal) [µM],TGI (ACHN renal) [µM],GI50 (EKVX NSCLC) [µM],TGI (EKVX NSCLC) [µM],GI50 (HCT-15 colon) [µM],TGI (HCT-15 colon) [µM],GI50 (LOX IMVI melanoma) [µM],TGI (LOX IMVI melanoma) [µM],GI50 (OVCAR-5 ovarian) [µM],TGI (OVCAR-5 ovarian) [µM],GI50 (RPMI-8226 leukemia) [µM],TGI (RPMI-8226 leukemia) [µM],GI50 (SK-MEL-5 melanoma) [µM],TGI (SK-MEL-5 melanoma) [µM],GI50 (U251 CNS) [µM],TGI (U251 CNS) [µM],GI50 (UACC-257 melanoma) [µM],TGI (UACC-257 melanoma) [µM],GI50 (UACC-62 melanoma) [µM],TGI (UACC-62 melanoma) [µM]
C=C1C(=O)O[C@H]2[C@H]1CC/C(COC(=O)c1cn(C)c3ccccc13)=C\CC[C@@]1(C)O[C@@H]21,0.828,2.09,0.962,3.42,0.539,2.26,0.228,0.81,1.56,4.11,0.217,0.665,1.42,2.77,1.42,2.77,1.32,2.65,1.26,2.74
c1cc(CN2CCCNCCNCCCNCC2)ccc1CN1CCCNCCNCCCNCC1,> 100,> 100,> 100,> 100,> 100,> 100,> 100,> 100,> 100,> 100,> 100,> 100,> 100,> 100,> 100,> 100,> 100,> 100,> 100,> 100
O=P(O)(O)OCC1OC(n2cnc3c(NCc4ccco4)ncnc32)C(O)C1O (centres undefined),2.2,> 100,2.82,> 41,0.701,> 56.9,0.374,1.47,5.64,> 100,0.298,2.66,3.89,> 37.4,4.33,> 100,> 100,> 100,2.71,12.5
CCOc1cc(C(=O)O)c2c(ccc3ccc(OC)c(OC)c32)c1OC,–,> 100,–,> 100,–,> 100,–,> 100,–,> 100,–,> 100,–,> 100,–,> 100,–,> 100,–,> 100
CN(C)C(=S)/N=c1\ssc(=S)n1Cc1cccs1,–,> 100,–,> 94.6,–,> 100,–,> 100,–,> 100,–,> 100,–,> 16.1,–,69.9,–,> 75.4,–,> 56.7
O=C1Nc2ccccc2/C1=C\c1cccc(/C=C2/C(=O)Nc3ccccc32)n1,0.308,1.12,0.692,8.74,0.219,0.618,0.19,0.44,0.888,2.4,0.232,0.699,0.242,0.722,0.16,0.346,0.241,0.633,0.32,0.962
CCCCC[C@H]1CC=C2C(=O)C=C[C@@H]2CC=CCCCC(=O)O[C@@H](CCCCC)CC=C2C(=O)C=C[C@@H]2CC=CCCCC(=O)O[C@@H](CCCCC)CC=C2C(=O)C=C[C@@H]2CC=CCCCC(=O)O1,0.438,> 8.75,0.414,6.31,0.718,5.73,0.15,0.306,1.08,> 8.75,0.256,0.821,0.737,1.87,0.158,0.315,0.456,2.2,0.204,0.545
O=C1CSC(c2ccc(-c3nc4ccccc4[nH]3)cc2)=N1,24.7,> 50,> 50,> 50,16.7,> 50,15.7,> 50,> 50,> 50,11.7,> 50,13,> 50,17.4,> 50,20.3,> 50,12.5,> 50
CC(N)Cc1ccc(Cl)cc1 (centres undefined),–,> 100,–,> 100,–,> 100,–,> 100,–,> 100,–,> 100,–,> 100,–,> 100,–,> 100,–,> 100
COc1ccc2c3c(c(C(=O)O)oc13)CCC2,–,> 100,–,> 100,–,> 100,–,> 100,–,> 100,–,> 100,–,> 100,–,> 100,–,> 100,–,> 100
CC(C)(CN1CCOCC1)C(=O)/C=C/c1ccc(/C=C/C(=O)C(C)(C)CN2CCOCC2)cc1,–,4.92,–,4.12,–,4.03,–,1.54,–,3.26,–,7.63,–,3.23,–,2.63,–,–,–,2.98
